Measurements: article PMC11702208 (RSC Advances, 2025)

How the values were obtained:
MOLT-4 = test: NCI cytotoxicity screen; format: cell-based, human; conditions: 10.0 μM one dose
RPMI-8226 = test: NCI cytotoxicity screen; format: cell-based, human; conditions: 10.0 μM one dose
SR = test: NCI cytotoxicity screen; format: cell-based, human; conditions: 10.0 μM one dose
EKVX = test: NCI cytotoxicity screen; format: cell-based, human; conditions: 10.0 μM one dose
NCI-H226 = test: NCI cytotoxicity screen; format: cell-based, human; conditions: 10.0 μM one dose
NCI-H23 = test: NCI cytotoxicity screen; format: cell-based, human; conditions: 10.0 μM one dose
HCT-116 = test: NCI cytotoxicity screen; format: cell-based, human; conditions: 10.0 μM one dose
HCT-15 = test: NCI cytotoxicity screen; format: cell-based, human; conditions: 10.0 μM one dose
HT29 = test: NCI cytotoxicity screen; format: cell-based, human; conditions: 10.0 μM one dose; HT-29
SF-295 = test: NCI cytotoxicity screen; format: cell-based, human; conditions: 10.0 μM one dose
SF-539 = test: NCI cytotoxicity screen; format: cell-based, human; conditions: 10.0 μM one dose
U251 = test: NCI cytotoxicity screen; format: cell-based, human; conditions: 10.0 μM one dose; U-251
LOX IMVI = test: NCI cytotoxicity screen; format: cell-based, human; conditions: 10.0 μM one dose
A498 = test: NCI cytotoxicity screen; format: cell-based, human; conditions: 10.0 μM one dose; A-498
PC-3 = test: NCI cytotoxicity screen; format: cell-based, human; conditions: 10.0 μM one dose
DU-145 = test: NCI cytotoxicity screen; format: cell-based, human; conditions: 10.0 μM one dose
MDA-MB-231/ATCC = test: NCI cytotoxicity screen; format: cell-based, human; conditions: 10.0 μM one dose; MDA-MB-231/ATCC
T-47D = test: NCI cytotoxicity screen; format: cell-based, human; conditions: 10.0 μM one dose; T-47D
MDA-MB-468 = test: NCI cytotoxicity screen; format: cell-based, human; conditions: 10.0 μM one dose
[1] = tested on: Ovarian cancer subpanel tumor cell lines; test: NCI cytotoxicity screen, subpanel; format: cell-based, human; conditions: 10 μM; range over ovarian cancer cell lines
59 cancer cell lines = test: NCI cytotoxicity screen, full panel; format: cell-based, human; conditions: 10.0 μM one dose, 59 cell lines
CCRF-CEM = test: NCI cytotoxicity screen; format: cell-based, human; conditions: 10.0 μM one dose
A549/ATCC = test: NCI cytotoxicity screen; format: cell-based, human; conditions: 10.0 μM one dose; A549/ATCC
NCI-H522 = test: NCI cytotoxicity screen; format: cell-based, human; conditions: 10.0 μM one dose
KM12 = test: NCI cytotoxicity screen; format: cell-based, human; conditions: 10.0 μM one dose; KM-12
SF-268 = test: NCI cytotoxicity screen; format: cell-based, human; conditions: 10.0 μM one dose
SNB-19 = test: NCI cytotoxicity screen; format: cell-based, human; conditions: 10.0 μM one dose
SNB-75 = test: NCI cytotoxicity screen; format: cell-based, human; conditions: 10.0 μM one dose
MDA-MB-435 = test: NCI cytotoxicity screen; format: cell-based, human; conditions: 10.0 μM one dose
SK-MEL-5 = test: NCI cytotoxicity screen; format: cell-based, human; conditions: 10.0 μM one dose
UACC-62 = test: NCI cytotoxicity screen; format: cell-based, human; conditions: 10.0 μM one dose
OVCAR-3 = test: NCI cytotoxicity screen; format: cell-based, human; conditions: 10.0 μM one dose; OVCAR-3
CAKI-1 = test: NCI cytotoxicity screen; format: cell-based, human; conditions: 10.0 μM one dose
RXF 393 = test: NCI cytotoxicity screen; format: cell-based, human; conditions: 10.0 μM one dose
UO-31 = test: NCI cytotoxicity screen; format: cell-based, human; conditions: 10.0 μM one dose
MCF7 = test: NCI cytotoxicity screen; format: cell-based, human; conditions: 10.0 μM one dose; MCF-7
HS 578T = test: NCI cytotoxicity screen; format: cell-based, human; conditions: 10.0 μM one dose; HS-578T
COX-2 = target: T1, COX-2 (Ovis aries, UniProt P79208); test: Colorimetric COX; format: biochemical, ovine
T1 sequence (P79208 17-603): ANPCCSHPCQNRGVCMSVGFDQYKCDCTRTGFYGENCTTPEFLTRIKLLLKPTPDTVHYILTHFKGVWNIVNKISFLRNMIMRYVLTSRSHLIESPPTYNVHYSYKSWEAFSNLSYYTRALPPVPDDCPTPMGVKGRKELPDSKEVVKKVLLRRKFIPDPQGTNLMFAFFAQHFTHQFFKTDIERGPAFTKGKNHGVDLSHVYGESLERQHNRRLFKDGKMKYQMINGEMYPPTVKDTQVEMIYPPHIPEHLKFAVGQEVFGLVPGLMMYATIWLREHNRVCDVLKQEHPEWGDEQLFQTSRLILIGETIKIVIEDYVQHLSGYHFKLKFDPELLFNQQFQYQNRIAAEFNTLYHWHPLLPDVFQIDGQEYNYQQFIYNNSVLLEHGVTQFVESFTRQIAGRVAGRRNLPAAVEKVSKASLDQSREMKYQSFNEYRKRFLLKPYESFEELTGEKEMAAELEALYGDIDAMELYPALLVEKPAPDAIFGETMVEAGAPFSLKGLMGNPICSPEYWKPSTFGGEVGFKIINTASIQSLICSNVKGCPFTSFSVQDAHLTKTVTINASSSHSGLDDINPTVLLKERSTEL

EGFR = EGFR (Homo sapiens, UniProt P00533); test: biochemical; conditions: IC50 EGFR inhibition
HER2 = HER2 (Homo sapiens, UniProt P04626); test: HER2 tyrosine kinase assay; format: biochemical; conditions: IC50 HER2 inhibition
CDK9 = CDK9 (Homo sapiens, UniProt P50750); test: biochemical; conditions: IC50 CDK9 inhibition
K-562 = conditions: 10.0 μM one dose

HER2, sequence (P04626 23-1255): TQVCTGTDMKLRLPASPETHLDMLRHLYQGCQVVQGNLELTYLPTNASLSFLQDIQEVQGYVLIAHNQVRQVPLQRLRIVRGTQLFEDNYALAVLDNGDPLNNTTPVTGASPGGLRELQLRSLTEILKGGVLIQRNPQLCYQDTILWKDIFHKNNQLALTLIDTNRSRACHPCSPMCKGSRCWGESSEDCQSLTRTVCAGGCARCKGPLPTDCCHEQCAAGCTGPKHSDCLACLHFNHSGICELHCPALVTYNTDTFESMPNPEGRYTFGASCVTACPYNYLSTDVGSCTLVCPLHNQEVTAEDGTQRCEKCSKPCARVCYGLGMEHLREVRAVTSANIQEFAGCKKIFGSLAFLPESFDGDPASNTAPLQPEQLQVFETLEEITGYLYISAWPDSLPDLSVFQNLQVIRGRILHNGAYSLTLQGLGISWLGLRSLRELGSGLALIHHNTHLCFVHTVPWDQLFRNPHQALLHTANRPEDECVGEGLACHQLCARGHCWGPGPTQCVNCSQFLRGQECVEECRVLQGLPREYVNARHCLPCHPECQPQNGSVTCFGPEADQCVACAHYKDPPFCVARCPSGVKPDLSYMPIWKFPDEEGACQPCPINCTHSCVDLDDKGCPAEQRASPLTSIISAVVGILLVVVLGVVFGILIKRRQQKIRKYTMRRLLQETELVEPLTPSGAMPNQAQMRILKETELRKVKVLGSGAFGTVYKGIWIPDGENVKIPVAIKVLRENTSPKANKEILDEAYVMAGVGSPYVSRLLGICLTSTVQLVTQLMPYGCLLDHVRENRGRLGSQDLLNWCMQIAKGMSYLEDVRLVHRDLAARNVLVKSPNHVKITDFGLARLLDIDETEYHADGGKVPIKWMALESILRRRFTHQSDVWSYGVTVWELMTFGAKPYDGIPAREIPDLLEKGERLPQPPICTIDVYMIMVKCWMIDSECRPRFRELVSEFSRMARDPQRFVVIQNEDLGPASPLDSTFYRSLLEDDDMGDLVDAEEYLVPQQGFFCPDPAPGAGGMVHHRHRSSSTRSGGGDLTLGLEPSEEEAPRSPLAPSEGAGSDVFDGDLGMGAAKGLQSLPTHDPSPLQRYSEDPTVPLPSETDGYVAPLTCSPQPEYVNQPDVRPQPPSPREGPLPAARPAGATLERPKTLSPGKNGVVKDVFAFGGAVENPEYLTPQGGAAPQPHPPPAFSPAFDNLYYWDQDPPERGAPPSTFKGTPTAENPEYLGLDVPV
CDK9, sequence (P50750 whole entry): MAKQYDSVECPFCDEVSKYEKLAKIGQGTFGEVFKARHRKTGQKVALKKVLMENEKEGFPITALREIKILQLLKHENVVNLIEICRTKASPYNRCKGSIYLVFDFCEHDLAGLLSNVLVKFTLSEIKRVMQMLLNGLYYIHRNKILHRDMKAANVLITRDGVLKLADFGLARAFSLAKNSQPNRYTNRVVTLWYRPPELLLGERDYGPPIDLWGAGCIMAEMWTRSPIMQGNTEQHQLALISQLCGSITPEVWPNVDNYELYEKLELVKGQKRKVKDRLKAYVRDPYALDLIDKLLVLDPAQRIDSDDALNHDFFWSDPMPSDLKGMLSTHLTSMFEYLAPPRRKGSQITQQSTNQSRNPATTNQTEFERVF
CDK9, sequence (O60563 whole entry partner): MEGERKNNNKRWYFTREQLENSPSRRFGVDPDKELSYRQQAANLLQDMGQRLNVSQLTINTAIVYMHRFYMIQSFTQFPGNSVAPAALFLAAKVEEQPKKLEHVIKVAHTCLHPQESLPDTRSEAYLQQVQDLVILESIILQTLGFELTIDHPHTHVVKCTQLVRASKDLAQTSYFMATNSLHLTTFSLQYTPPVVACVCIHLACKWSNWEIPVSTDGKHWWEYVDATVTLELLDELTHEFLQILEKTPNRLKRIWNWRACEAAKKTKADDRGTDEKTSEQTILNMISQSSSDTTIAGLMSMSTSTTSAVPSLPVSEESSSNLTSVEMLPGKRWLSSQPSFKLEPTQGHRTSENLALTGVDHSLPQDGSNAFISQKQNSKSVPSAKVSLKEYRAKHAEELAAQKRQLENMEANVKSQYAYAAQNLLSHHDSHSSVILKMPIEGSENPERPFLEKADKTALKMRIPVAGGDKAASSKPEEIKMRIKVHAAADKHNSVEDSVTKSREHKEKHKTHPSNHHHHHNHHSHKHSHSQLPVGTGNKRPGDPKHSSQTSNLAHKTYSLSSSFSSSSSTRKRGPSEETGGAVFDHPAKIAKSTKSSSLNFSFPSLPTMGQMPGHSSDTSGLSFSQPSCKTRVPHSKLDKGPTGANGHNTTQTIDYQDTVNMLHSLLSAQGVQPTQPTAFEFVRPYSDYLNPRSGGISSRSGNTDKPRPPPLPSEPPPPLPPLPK
EGFR, sequence (P00533 25-1210): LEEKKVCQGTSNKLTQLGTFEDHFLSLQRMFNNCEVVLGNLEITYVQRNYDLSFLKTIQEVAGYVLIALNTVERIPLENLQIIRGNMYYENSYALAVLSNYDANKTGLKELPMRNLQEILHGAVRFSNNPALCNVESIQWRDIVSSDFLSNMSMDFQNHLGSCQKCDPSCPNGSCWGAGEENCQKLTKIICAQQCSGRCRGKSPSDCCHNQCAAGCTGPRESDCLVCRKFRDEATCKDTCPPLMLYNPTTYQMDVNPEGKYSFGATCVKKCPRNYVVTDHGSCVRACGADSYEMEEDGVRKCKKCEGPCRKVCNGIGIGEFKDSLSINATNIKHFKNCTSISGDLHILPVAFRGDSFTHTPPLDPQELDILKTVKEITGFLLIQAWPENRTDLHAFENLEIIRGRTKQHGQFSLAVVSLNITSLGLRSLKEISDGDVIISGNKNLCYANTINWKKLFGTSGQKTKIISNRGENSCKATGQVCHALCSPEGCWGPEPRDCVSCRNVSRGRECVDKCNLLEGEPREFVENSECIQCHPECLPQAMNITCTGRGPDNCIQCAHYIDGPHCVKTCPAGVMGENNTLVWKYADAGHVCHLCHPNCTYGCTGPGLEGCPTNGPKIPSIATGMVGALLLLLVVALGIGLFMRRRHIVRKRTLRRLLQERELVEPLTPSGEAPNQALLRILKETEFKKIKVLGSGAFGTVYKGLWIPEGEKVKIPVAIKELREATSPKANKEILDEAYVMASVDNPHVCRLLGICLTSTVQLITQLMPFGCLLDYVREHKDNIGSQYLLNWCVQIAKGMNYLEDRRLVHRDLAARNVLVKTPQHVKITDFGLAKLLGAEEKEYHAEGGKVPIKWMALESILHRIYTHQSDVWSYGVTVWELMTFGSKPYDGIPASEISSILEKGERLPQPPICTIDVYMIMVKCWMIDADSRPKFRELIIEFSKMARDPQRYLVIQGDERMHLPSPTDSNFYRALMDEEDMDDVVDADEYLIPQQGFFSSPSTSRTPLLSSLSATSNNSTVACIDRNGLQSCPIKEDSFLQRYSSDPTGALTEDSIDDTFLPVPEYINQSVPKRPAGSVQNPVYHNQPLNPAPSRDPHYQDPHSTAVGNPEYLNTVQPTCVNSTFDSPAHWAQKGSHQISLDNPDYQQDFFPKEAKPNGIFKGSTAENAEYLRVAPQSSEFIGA

With `Cc1ccc(NC(=O)c2ccc(CN3CCN(C)CC3)cc2)cc1Nc1nccc(-c2cccnc2)n1` [Imatinib, reference compound] the GI % (MOLT-4) was 18%, the GI % (RPMI-8226) was 12.6% and the GI % (SR) was 14.6%. It also gave a GI % (EKVX) of 15.7%, a GI % (NCI-H226) of 10.6% and a GI % (NCI-H23) of 17.1%. It also gave a GI % (HCT-116) of 18.6%, a GI % (HCT-15) of 11.5% and a GI % (HT29) of 47.1%. For the same molecule, the GI % (SF-295) was 15.1%, the GI % (SF-539) was 24.5% and the GI % (U251) was 10.6%. The GI % (LOX IMVI) was 11.6%, the GI % (A498) was 13.7% and the GI % (PC-3) was 10.6%. For the same molecule, the GI % (DU-145) was 14.4%, the GI % (MDA-MB-231/ATCC) was 11.2% and the GI % (T-47D) was 18.6%. For the same molecule, the GI % (MDA-MB-468) was 29.1%, the GI % [1] was < 10% and the “MG% (mean growth percent)” value (59 cancer cell lines) was 92.62%. For the same molecule, the “MG% (mean growth percent)” value (59 cancer cell lines; listed as imatinib) was 92.6%.
Work on `Cc1ccc(C=NNC(=O)CSc2nc3ccccc3c(=O)n2Cc2ccc(S(N)(=O)=O)cc2)cc1` [Compound 9, 4-((2-((2-(2-(4-Methylbenzylidene)hydrazineyl)-2-oxoethyl)thio)-4-oxoquinazolin-3(4H)-yl)methyl)benzenesulfonamide] yielded a GI % (CCRF-CEM) of 13%, a GI % (MOLT-4) of 14% and a GI % (SR) of 51%. It also gave a GI % (A549/ATCC) of 15%, a GI % (EKVX) of 10% and a GI % (NCI-H226) of 16%. It also gave a GI % (NCI-H522) of 58%, a GI % (HCT-15) of 11% and a GI % (HT29) of 14%. The GI % (KM12) was 14%, the GI % (SF-268) was 22% and the GI % (SNB-19) was 11%. It also gave a GI % (SNB-75) of 29%, a GI % (LOX IMVI) of 18% and a GI % (MDA-MB-435) of 54%. For the same molecule, the GI % (SK-MEL-5) was 26%, the GI % (UACC-62) was 22% and the GI % (OVCAR-3) was 21%. For the same molecule, the GI % (CAKI-1) was 36%, the GI % (RXF 393) was 14% and the GI % (UO-31) was 20%. It also gave a GI % (PC-3) of 11%, a GI % (MCF7) of 41% and a GI % (MDA-MB-231/ATCC) of 11%. The GI % (HS 578T) was 12%, the GI % (T-47D) was 19% and the GI % (MDA-MB-468) was 19%. For the same molecule, the “MG% (mean growth percent)” value (59 cancer cell lines) was 88.5%, the IC50 (COX-2) was 15400 ± 320 nM and the IC50 (EGFR) was 378 ± 9.26 nM. The IC50 (HER2) was 229 nM, the IC50 (CDK9) was 316 ± 7.76 nM and the GI % (K-562) was 37%.
